Positions of bridges follow the written chain, without caps; N, C: chain ends. Non-standard residues stand in square brackets, D forms with d. Residues, ends and D or L forms follow the SMILES beside them. 2Nal = N[C@@H](Cc1ccc2ccccc2c1)C(=O)O; Nle = CCCC[C@H](N)C(=O)O
Experiments:
human TSP1 [1] = biological target: T1, human TSP1 (Homo sapiens, UniProt P07996); assay: Cell adhesion inhibition assay (HUVEC adhesion to TSP1-coated plate); assay type: cell-based; details: HUVEC adhesion to human platelet thrombospondin-coated plate, 2.5 hours, CellTiter-Glo; read-out: Cell adhesion IC50
How it was run: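 Plates coated overnight at 4 °C with 10 μg/mL human platelet TSP1 in TBS + 2 mM CaCl2, blocked with Lipidure, then preincubated 15–30 min with samples in DMEM/0.5% BSA. HUVECs (10000 cells/well) adhered for 2.5 h at 37 °C; adherent cells quantified by CellTiter-Glo luminescence and IC50 (nM) calculated.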
Target sequence in this assay (P07996 19-1170 limits assumed): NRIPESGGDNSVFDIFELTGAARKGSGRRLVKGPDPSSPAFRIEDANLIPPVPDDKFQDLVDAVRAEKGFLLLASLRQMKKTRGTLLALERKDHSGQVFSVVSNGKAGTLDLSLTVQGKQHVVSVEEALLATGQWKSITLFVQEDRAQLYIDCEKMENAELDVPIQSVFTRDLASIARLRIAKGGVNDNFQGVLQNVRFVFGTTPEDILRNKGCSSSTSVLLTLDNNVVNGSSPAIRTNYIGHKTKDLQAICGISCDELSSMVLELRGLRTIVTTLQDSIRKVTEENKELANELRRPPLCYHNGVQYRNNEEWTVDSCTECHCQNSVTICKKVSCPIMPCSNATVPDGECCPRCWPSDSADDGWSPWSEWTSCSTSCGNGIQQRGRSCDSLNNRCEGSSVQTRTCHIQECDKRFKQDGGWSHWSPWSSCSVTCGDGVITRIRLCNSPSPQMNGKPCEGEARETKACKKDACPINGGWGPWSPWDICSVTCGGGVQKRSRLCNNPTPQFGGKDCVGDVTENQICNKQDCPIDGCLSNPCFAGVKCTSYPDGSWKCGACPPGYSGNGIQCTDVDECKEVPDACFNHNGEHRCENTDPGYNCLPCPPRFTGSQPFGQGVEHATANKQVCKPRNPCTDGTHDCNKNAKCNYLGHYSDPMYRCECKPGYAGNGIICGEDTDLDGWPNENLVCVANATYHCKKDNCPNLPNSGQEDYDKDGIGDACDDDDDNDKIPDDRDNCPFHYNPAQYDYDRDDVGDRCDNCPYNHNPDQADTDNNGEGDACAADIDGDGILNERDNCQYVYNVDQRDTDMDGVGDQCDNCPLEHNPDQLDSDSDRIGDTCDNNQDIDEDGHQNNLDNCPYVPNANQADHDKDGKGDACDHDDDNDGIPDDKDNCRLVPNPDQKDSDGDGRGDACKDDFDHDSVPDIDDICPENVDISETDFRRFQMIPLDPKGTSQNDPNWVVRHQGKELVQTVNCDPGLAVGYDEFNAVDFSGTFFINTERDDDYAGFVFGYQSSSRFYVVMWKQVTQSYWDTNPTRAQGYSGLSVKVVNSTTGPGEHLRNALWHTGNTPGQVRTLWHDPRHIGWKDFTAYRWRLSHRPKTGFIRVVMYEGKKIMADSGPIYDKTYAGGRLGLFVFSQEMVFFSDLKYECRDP

human TSP1 [2] = biological target: T1, human TSP1; assay: Interaction analysis by SPR (Biacore T200); assay type: binding; details: single-cycle kinetics, 25° C., KD from ka and kd
Method: (Test Example 2) Interaction Analysis by SPR
Interaction analysis by SPR was performed using Biacore T200 (produced by GE Healthcare).
I. Immobilization of Recombinant-hTSP1
First, 500 μM NiCl2 was injected over an NTA-Chip (produced by GE Healthcare, BR100532) at a flow rate of 5 μL/min. for 1 minute to thereby activate NTA groups. Then, an EDC/NHS mixture was injected at a flow rate of 10 μL/min. for 7 minutes to thereby activate the carboxyl groups of dextran. Recombinant-hTSP1 was injected at a flow rate of 10 μL/min. for 7 minutes to immobilize the TSP1 on the substrate surfaces with activated NTA and carboxyl groups. Ethanolamine was injected at a flow rate of 10 μL/min. for 7 minutes to thereby deactivate unreacted, activated carboxyl groups.
The immobilization buffer used was prepared by diluting 10×HBS-P+(produced by GE Healthcare, BR100671) to 1-fold and adding 5 mM CaCl2.
The reagents EDC/NHS/ethanolamine used were included in the Amine-coupling kit (BR100050) commercially available from GE Healthcare.
The measurement buffer was prepared based on the following composition profile:
The measurement was performed in the following steps.
For the purpose of equilibrating substrate surfaces, the measurement buffer was injected under the following conditions:
contact time: 60 sec., dissociation time: 120 sec., flow rate: 50 μL/min., temperature: 25° C.
The injection under the same conditions was repeated five times to ensure equilibration.
Since Biacore T200 is highly responsive to change in DMSO concentrations, DMSO solutions were sequentially injected at concentrations of 4%, 4.4%, 4.8%, 5.2%, 5.6%, and 6% to correct for DMSO effects.
The method adopted for sample measurement was a single-cycle kinetics method which is effective for samples showing low dissociative behavior. The advantage of this method is that since sample solutions at different concentration regions are injected in the same cycle, the influence between different cycles in association with low dissociation can be ignored in the analysis.
A 3-fold diluted series of sample solutions were prepared in five concentrations (100, 33, 11, 3.7 and 1.2 nM), and sequentially injected at a flow rate of 50 μL/min. for 3 minutes in the order from lowest to highest concentration. After the highest concentration of diluted solution was injected, a dissociation time of 20 to 30 minutes was spent.
Before samples were measured, the measurement buffer was injected alone under the same conditions to establish a baseline.
The analysis was conducted using the evaluation software provided with Biacore T100 and T200. A DMSO correction curve obtained by solvent correction measurements was applied for the analysis. Kinetics fitting was done on the difference data obtained by subtracting the baseline data from sample measurement data.
KD values were calculated based on the association rate constant (ka) and dissociation rate constant (kd).
Target sequence in this assay (P07996 19-1170): as the sequence (P07996 19-1170 limits assumed) above

C57BL/6 mice = assay: Blood flow improvement tests (femoral artery/vein ligation and excision, laser Doppler); assay type: in vivo; details: after 7 days of surgery; for % change (vs. vehicle): blood flow ratio ischemia/nonischemia; for %, ischemia/nonischemia: blood flow ratio of ischemic limb to non-ischemic limb, laser Doppler
Description: (Test Example 3) Blood Flow Improvement Tests
Seven to nine-week-old male C57BL/6 mice were purchased from Charles River Laboratories Japan Inc., and acclimated over one week by feeding with a FR-2 solid diet (produced by Funabashi Farm Co., Ltd.). The rearing facility switched between light and dark modes in a 12-hour cycle with light turning on at 7 a.m and turning off at 7 p.m. Under isofluorane inhalation anaesthesia, the left thighs of the mice were dissected, and the superficial femoral arteries and veins (from just below the deep femoral arteries to the popliteal artery and vein) were ligated and excised. After animal models were made, the test substances (Compounds 24, 28, 40 to 45, and 58) were each dissolved in a solution of 20 mM lactic acid and 5% (w/v) Lutrol, and intraperitoneally injected into mice once daily.
(Blood Flow Improvement Test 1)
Compound 24 (10 mg/kg)-treated group
(Blood Flow Improvement Test 2)
Compound 28 (10 mg/kg)-treated group
(Blood Flow Improvement Test 3)
Compound 40 (10 mg/kg)-treated group
Compound 41 (10 mg/kg)-treated group
(Blood Flow Improvement Test 4)
Compound 42 (10 mg/kg)-treated group
Compound 43 (10 mg/kg)-treated group
Compound 44 (10 mg/kg)-treated group
Compound 45 (10 mg/kg)-treated group
(Blood Flow Improvement Test 5)
Compound 58 (10 mg/kg)-treated group
Blood flows were measured in ischemic (left) and non-ischemic (right) limbs using a laser Doppler perfusion imager (LDPI; PIM III, Perimed, Inc.). Blood flow values were evaluated by the ratio of ischemic limb flow to non-ischemic limb flow.
Blood flow values from the mice were the lowest immediately after surgery and then gradually recovered. All of the test substances investigated in the animal models of this study improved blood flow recovery after surgery as compared to vehicle treatment. After 7 days of surgery, the blood flows in the test substance-treated groups were higher than in the vehicle-treated mice.

IC50 (human TSP1 [1]) | Kd (human TSP1 [2]) | Structure (SMILES) | % change (vs. vehicle) (C57BL/6 mice) | %, ischemia/nonischemia (C57BL/6 mice)
27.3 nM | 0.44 nM | CC(C)[C@@H]1NC(=O)[C@H](Cc2c[nH]c3ccccc23)NC(=O)[C@H](CCCCN)NC(=O)[C@H](C(C)C)NC(=O)[C@H](Cc2c[nH]c3ccccc23)NC(=O)[C@H](CC(N)=O)NC(=O)[C@H](CCCNC(=N)N)NC(=O)CNC(=O)[C@H](CO)NC(=O)[C@H](CCCNC(=N)N)NC(=O)[C@H](Cc2ccccc2)NC(=O)CSC[C@@H](C(N)=O)NC1=O [Compound 6] ({CH2CO}-FRSGRNWVKWVC-NH2; thioether N-12) |  | 
 | 0.12 nM | CC[C@H](C)[C@@H]1NC(=O)[C@H](Cc2ccccc2)NC(=O)CSC[C@@H](C(N)=O)NC(=O)[C@H](C(C)C)NC(=O)[C@H](Cc2c[nH]c3ccccc23)NC(=O)[C@H](CCCCN)NC(=O)[C@H](C(C)C)NC(=O)[C@H](Cc2c[nH]c3ccccc23)NC(=O)[C@H](CC(N)=O)NC(=O)[C@H](CCCCN)NC(=O)CNC(=O)[C@H](CO)NC1=O [Compound 7] ({CH2CO}-FISGKNWVKWVC-NH2; thioether N-12) |  | 
 | 0.12 nM | CC[C@H](C)[C@@H]1NC(=O)[C@H](Cc2ccc3ccccc3c2)NC(=O)CSC[C@@H](C(N)=O)NC(=O)[C@H](C(C)C)NC(=O)[C@H](Cc2c[nH]c3ccccc23)NC(=O)[C@H](CCCCN)NC(=O)[C@H](C(C)C)NC(=O)[C@H](Cc2c[nH]c3ccccc23)NC(=O)[C@H](CC(N)=O)NC(=O)[C@H](CCCNC(=N)N)NC(=O)CNC(=O)[C@H](CO)NC1=O [Compound 24] ({CH2CO}-[2Nal]ISGRNWVKWVC-NH2; thioether N-12) | 4.9% | 41.20%
 | 0.44 nM | CC[C@H](C)[C@@H]1NC(=O)[C@H](Cc2ccc3ccccc3c2)NC(=O)CSC[C@@H](C(N)=O)NC(=O)[C@H](C(C)C)NC(=O)[C@H](Cc2c[nH]c3ccccc23)NC(=O)[C@H](CCCCN)NC(=O)[C@H](C(C)C)NC(=O)[C@H](Cc2c[nH]c3ccccc23)NC(=O)[C@H](CC(N)=O)NC(=O)[C@H](Cc2c[nH]cn2)NC(=O)CNC(=O)[C@H](CO)NC1=O [Compound 42] ({CH2CO}-[2Nal]ISGHNWVKWVC-NH2; thioether N-12) | 27.0% | 47.40%
9.2 nM | 0.13 nM | CC[C@H](C)[C@@H]1NC(=O)[C@H](Cc2ccc3ccccc3c2)NC(=O)CSC[C@@H](C(N)=O)NC(=O)[C@H](C(C)C)NC(=O)[C@H](Cc2c[nH]c3ccccc23)NC(=O)[C@H](CCCCN)NC(=O)[C@H](C(C)C)NC(=O)[C@H](Cc2c[nH]c3ccccc23)NC(=O)[C@H](CC(N)=O)NC(=O)[C@H](CCCCN)NC(=O)CNC(=O)[C@H](CO)NC1=O [Compound 43] ({CH2CO}-[2Nal]ISGKNWVKWVC-NH2; thioether N-12) | 30.9% | 48.86%
30.3 nM |  | CC[C@H](C)[C@@H]1NC(=O)[C@H](Cc2ccc3ccccc3c2)NC(=O)CSC[C@@H](C(N)=O)NC(=O)[C@H](C(C)C)NC(=O)[C@H](Cc2c[nH]c3ccccc23)NC(=O)[C@H](CCCCN)NC(=O)[C@H](C(C)C)NC(=O)[C@H](Cc2c[nH]c3ccccc23)NC(=O)[C@H](CC(N)=O)NC(=O)[C@H](CO)NC(=O)CNC(=O)[C@H](CO)NC1=O [Compound 44] ({CH2CO}-[2Nal]ISGSNWVKWVC-NH2; thioether N-12) | 10.5% | 41.25%
 | 0.13 nM | CCCC[C@@H]1NC(=O)[C@H](Cc2c[nH]c3ccccc23)NC(=O)[C@H](CC(=O)O)NC(=O)[C@H](CCCNC(=N)N)NC(=O)CNC(=O)[C@H](CO)NC(=O)[C@H]([C@@H](C)CC)NC(=O)[C@H](Cc2ccc3ccccc3c2)NC(=O)CSC[C@@H](C(N)=O)NC(=O)[C@H](C(C)C)NC(=O)[C@H](Cc2c[nH]c3ccccc23)NC(=O)[C@H](CCCCN)NC1=O [Compound 45] ({CH2CO}-[2Nal]ISGRDW[Nle]KWVC-NH2; thioether N-12) | 76.0% | 65.70%
15.9 nM | 0.091 nM | CCCC[C@@H]1NC(=O)[C@H](Cc2c[nH]c3ccccc23)NC(=O)[C@H](CC(=O)O)NC(=O)[C@H](CCCCN)NC(=O)CNC(=O)[C@H](CO)NC(=O)[C@H]([C@@H](C)CC)NC(=O)[C@H](Cc2ccc3ccccc3c2)NC(=O)CSC[C@@H](C(N)=O)NC(=O)[C@H](C(C)C)NC(=O)[C@H](Cc2c[nH]c3ccccc23)NC(=O)[C@H](CCCNC(=N)N)NC1=O [Compound 58] ({CH2CO}-[2Nal]ISGKDW[Nle]RWVC-NH2; thioether N-12) | 85.5% | 69.00%

Source: patent US11149066B2, “Thrombospondin 1-binding peptide” (DAIICHI SANKYO COMPANY, LIMITED, priority 2016, dated 2021)
